In ChEMBL document CHEMBL4177756, “Small Molecule Neuropilin-1 Antagonists Combine Antiangiogenic and Antitumor Activity with Immune Modulation through Reduction of Transforming Growth Factor Beta (TGFβ) Production in Regulatory T-Cells” (J Med Chem, 2018) one finds half-life and Kd data, which are given here for one compound.

Data set [1] in a line: Half life in human plasma at 10 uM by MS/MS analysis. Format: ADME, cell-free.
Data set [2] has as its target Neuropilin-1 (Homo sapiens, UniProt O14786). Briefly: Binding affinity to recombinant human NRP1 extracellular domain by SPR method. On the technique in general: SPR reads the build-up and loss of mass on a sensor chip optically.

The structures appear in SMILES notation. Positions of bridges follow the written chain, without caps; N, C: chain ends. Residues, ends and D or L forms follow the SMILES beside them. *: point of attachment. Octanoyl = CCCCCCCC(=O)* Bounds are passed on as bounds.

What is called half-life is the time in which the quantity being followed falls by half. Higher therefore signals slow decline. What is called Kd is the free concentration of one partner at which half of the binding sites on the other are occupied at equilibrium, for simple one-to-one binding.

Chain of Neuropilin-1 (O14786 whole entry, the tested form may be a part): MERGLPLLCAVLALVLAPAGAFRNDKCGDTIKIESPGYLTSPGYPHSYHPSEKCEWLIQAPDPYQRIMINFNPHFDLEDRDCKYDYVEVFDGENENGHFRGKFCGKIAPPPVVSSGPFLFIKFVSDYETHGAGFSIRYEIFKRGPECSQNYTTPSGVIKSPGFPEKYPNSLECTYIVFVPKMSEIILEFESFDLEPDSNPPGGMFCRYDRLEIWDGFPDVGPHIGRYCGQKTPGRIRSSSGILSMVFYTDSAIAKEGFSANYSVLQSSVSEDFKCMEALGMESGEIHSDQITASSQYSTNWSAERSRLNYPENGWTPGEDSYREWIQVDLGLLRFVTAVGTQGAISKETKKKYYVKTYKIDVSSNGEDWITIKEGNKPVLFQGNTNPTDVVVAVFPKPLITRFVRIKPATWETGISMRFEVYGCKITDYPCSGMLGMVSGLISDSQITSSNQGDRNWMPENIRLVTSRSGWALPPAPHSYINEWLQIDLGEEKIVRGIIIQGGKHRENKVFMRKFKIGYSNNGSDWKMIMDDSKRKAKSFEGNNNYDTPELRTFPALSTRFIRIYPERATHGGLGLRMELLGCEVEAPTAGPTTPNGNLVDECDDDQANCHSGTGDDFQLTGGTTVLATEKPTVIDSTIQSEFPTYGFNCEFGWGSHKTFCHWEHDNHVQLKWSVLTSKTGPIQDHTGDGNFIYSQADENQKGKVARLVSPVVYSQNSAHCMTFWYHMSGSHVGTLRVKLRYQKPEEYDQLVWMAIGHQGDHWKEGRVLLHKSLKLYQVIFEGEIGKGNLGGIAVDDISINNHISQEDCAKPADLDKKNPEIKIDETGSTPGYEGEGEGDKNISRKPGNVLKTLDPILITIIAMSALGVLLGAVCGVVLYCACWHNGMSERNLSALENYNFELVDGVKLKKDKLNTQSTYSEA

For the compound `CCCCCCCC(=O)N[C@@H](CO)C(=O)N[C@H]1CSSC[C@@H]2NC(=O)[C@H]([C@@H](C)O)NC(=O)[C@H](CCCNC(=N)N)NC(=O)[C@H](CCC(=O)O)NC(=O)[C@H](CC(N)=O)NC(=O)[C@H](CC(C)C)NC(=O)[C@H](CCC(=O)O)NC(=O)[C@H](CC(C)C)NC(=O)[C@H](CCC(N)=O)NC(=O)[C@H](CCCNC(=N)N)NC(=O)[C@H](C)NC(=O)[C@H](CCCCN)NC(=O)[C@H](CSSC[C@@H](C(=O)N[C@@H](CC(=O)O)C(=O)N[C@@H](CCCCN)C(=O)N3CCC[C@H]3C(=O)N[C@@H](CCCNC(=N)N)C(=O)N[C@@H](CCCNC(=N)N)C(N)=O)NC(=O)[C@H](CCCNC(=N)N)NC2=O)NC(=O)[C@H](CCCNC(=N)N)NC(=O)[C@H](CO)NC(=O)[C@H](CC(=O)O)NC(=O)[C@H]([C@@H](C)O)NC(=O)[C@H](CC(N)=O)NC(=O)[C@H](CCCCN)NC1=O` (Octanoyl-SCKNTDSRCKARQLELNERTCRCDKPRR-NH2; disulfide 2-21, 9-23), the half-life at 10 µM in data set [1] was less than 5 min. In data set [2], the dissociation constant (Kd) worked out at 76 nM.
